Laboratory results from the NIST ThermoML archive (doi:10.1016/j.tca.2013.06.031).
Numbers after ± are expanded uncertainties.

Columns and labels:
[1] = wn = mass fraction of the nth substance listed; conditions: 101 kPa, Liquid, w1 = 0.009; for viscosity: Capillary tube (Ostwald / Ubbelohde) method; for mass density: Vibrating tube method
[2] = 101 kPa, Liquid, Capillary tube (Ostwald / Ubbelohde) method
[3] = mn = molality of the nth substance listed, in mol/kg; conditions: 101 kPa, Liquid, m2 = 0; for viscosity: Capillary tube (Ostwald / Ubbelohde) method; for mass density: Vibrating tube method

[Cl-].[Na+] [sodium chloride] + O
[1]
Conditions | mass density [kg/m3] | viscosity [mPa·s]
278.15 K | 1006.09 ± 0.27 | 1.53 ± 0.015
283.15 K | 1005.64 ± 0.27 | 1.321 ± 0.013
288.15 K | 1005.07 ± 0.28 | 1.154 ± 0.011
293.15 K | 1004.14 ± 0.27 | 1.015 ± 0.0098
298.15 K | 1002.96 ± 0.27 | 0.9068 ± 0.0086
303.15 K | 1001.47 ± 0.27 | 0.8105 ± 0.0077
308.15 K | 999.75 ± 0.27 | 0.7363 ± 0.007
313.15 K | 997.82 ± 0.26 | 0.6641 ± 0.0065

O [water]
[2]
Conditions | viscosity [mPa·s]
278.15 K | 1.521 ± 0.014
283.15 K | 1.307 ± 0.013
288.15 K | 1.135 ± 0.011
293.15 K | 1.002 ± 0.0094
298.15 K | 0.8903 ± 0.0083
303.15 K | 0.7977 ± 0.0074
308.15 K | 0.719 ± 0.0067
313.15 K | 0.6532 ± 0.0062

O [water] + CO/N=C(\C(=O)N[C@@H]1C(=O)N2C(C(=O)[O-])=C(CSc3nc(C)c(CC(=O)[O-])s3)CS[C@H]12)c1csc(N)n1.[Na+].[Na+]
[3]
Conditions | mass density [kg/m3] | viscosity [mPa·s]
278.15 K | 999.96 ± 0.24 | 1.521 ± 0.014
283.15 K | 999.7 ± 0.25 | 1.307 ± 0.013
288.15 K | – | 1.135 ± 0.011
293.15 K | – | 1.002 ± 0.0094
298.15 K | – | 0.8903 ± 0.0083
303.15 K | – | 0.7977 ± 0.0074
308.15 K | – | 0.719 ± 0.0067
313.15 K | – | 0.6532 ± 0.0062
